Data: patent US8466291B2, “1,5-dideoxy-1,5-imino-D-glucitol compounds” (Academia Sinica, priority 2008, dated 2013)

Experiments:
Human O-GlcNAcase = target: T1, Human O-GlcNAcase (Homo sapiens, UniProt O60502); test: Inhibition of human O-GlcNAcase; assay type: biochemical; conditions: Table 2
T1 construct: made in house
T1 sequence (O60502 1-916): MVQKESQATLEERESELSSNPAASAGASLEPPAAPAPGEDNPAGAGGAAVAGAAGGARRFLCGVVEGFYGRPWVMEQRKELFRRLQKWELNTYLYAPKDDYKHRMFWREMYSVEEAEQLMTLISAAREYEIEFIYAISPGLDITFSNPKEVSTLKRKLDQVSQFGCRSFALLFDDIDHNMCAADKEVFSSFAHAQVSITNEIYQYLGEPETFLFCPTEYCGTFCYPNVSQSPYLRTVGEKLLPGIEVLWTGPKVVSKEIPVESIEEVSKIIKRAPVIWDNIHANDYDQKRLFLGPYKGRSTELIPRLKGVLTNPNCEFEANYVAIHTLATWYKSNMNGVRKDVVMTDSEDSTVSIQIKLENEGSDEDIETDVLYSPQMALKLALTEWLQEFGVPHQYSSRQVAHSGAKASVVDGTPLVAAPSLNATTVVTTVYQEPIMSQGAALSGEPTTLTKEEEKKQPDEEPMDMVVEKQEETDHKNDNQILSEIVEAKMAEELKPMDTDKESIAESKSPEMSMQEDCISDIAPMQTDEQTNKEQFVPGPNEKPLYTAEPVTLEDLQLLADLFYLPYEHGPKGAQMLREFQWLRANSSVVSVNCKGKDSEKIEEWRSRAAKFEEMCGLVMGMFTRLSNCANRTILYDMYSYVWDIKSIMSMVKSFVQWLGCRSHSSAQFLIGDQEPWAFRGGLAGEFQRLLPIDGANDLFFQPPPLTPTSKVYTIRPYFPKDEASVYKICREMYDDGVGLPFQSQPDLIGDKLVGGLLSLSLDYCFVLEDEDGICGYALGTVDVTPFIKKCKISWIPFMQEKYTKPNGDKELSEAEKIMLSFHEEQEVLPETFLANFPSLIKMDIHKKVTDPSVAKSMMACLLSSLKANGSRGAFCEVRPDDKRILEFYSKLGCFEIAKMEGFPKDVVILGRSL
Protocol: Human O-GlcNAcase was also prepared and tested according to the procedures described in Gao et al., J. Biol. Chem. 2001, 276, 9838-9845 and Macauley et al., J. Am. Chem. Soc. 2005, 127, 17202-17203.

[1] = system: BV2 cells (mouse microglia cells); test: GM2 ganglioside accumulation in BV2 microglia cells by Western blot; assay type: cell-based; conditions: different concentrations, 16 hr, Western blot with anti-Ganglioside asialo GM2 antibody
Protocol: BV2 cells (mouse microglia cells) were cultured in DMEM for 24 hr in 60-mm tissue culture dishes. The cells were washed once with PBS (pH 7.4), and 2 mL of fresh medium with or without biotin conjugated Compound 5 (at different concentrations) was added to each dish. After being incubated in a 5% CO2 incubator at 37° C. for 16 hr, the BV2 cells were harvested, re-suspended in a solution containing PBS and 2×SDS lysis buffer (250 mM Tris, pH 6.8/4% SDS/20% glycerol/0.002% bromophenol blue/10% 2-mercaptoethanol) at a ratio of 1:1 to produce whole cell lysates. The cell lysates were boiled and then subjected to SDS-PAGE (15%) using a mini-gel apparatus (Biorad, Germany). Substances contained in the gel were transferred to a nitrocellulose membrane (Millipore) at 1 mA/cm^2 using a semidry blot system (Biorad, Germany). The membrane was blocked with a Tris-buffered saline (TBST) (50 mM Tris-HCl, pH 7.5; 150 mM NaCl; 0.1% Tween-20) containing 5% skim-milk and then blotted with an anti-Ganglioside asialo GM2 antibody and an anti-GAPDH antibody.

human Hex B (FLAG-HexB) = target: T2, human Hex B (FLAG-HexB) (Homo sapiens, UniProt P07686); test: Immunoprecipitation / streptavidin pull-down and Western blot from 293T/FLAG-HexB cell lysate; assay type: binding; conditions: 200 nM, room temperature 10 min
T2 construct: FLAG (N); expressed in transfected cells
T2 sequence (P07686 122-556): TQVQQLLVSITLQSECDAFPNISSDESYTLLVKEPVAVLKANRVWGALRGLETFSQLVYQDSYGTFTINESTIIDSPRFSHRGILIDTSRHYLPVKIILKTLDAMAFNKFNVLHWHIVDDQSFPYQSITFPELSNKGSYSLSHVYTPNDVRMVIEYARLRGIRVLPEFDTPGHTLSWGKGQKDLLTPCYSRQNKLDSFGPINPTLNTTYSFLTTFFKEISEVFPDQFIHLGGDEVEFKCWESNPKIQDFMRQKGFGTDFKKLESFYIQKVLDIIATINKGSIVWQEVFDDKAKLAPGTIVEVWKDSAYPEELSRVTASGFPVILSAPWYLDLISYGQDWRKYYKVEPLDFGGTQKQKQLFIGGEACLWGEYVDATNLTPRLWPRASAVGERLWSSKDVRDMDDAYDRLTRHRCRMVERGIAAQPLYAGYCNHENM
Protocol: A DNA fragment encoding human Hex B was amplified by PCR and cloned into pCMV-Tag 2B vector (Stratagene) to produce FLAG-tagged HexB expression plasmid (pFLAG-HexB). This plasmid was introduced into 293T cells to establish a cell line stably expressing FLAG-HexB. Briefly, 293T cells were maintained in Dulbecco's modified Eagle's medium (DMEM) supplemented with 10% (by volumn) heat inactivated fetal bovine serum (FBS), 2 mM glutamine, 100 units/mL penicillin and 100 μg/mL streptomycin at 37° C. in a 5% CO2 atmosphere. These cells were transfected with expression plasmid pFLAG-HexB and plasmid pBabe-puro (carrying a puromycin resistance gene) at a molar ratio of 30-40:1. 8 hours later, the transfected cells were fed with fresh medium and incubated for 16 h. These cells were then cultured in puromycin-containing (2 μg/mL) medium for 2-3 weeks to screen for puromycin-resistant clones.
Binding of Compound 5 to FLAG-HexB were further confirmed by immuno-precipitation and Westernblot assays. The 293T/FLAG-HexB cells were lysed with a lysis buffer containing 1% NP-40, 10 mM Tris-HCl at pH 7.4, 150 mM NaCl, 2 mM EDTA, 1 mM phenylmethylsulfonyl fluoride, and a proteinase inhibitor cocktail (Sigma), and the cell lysate was then incubated at room temperature for 10 min in the presence or absence of Compound 5 (200 nM). […]

## CC(=O)NC1CN(CCCCCCCNC(=O)CCCCC2SCC3NC(=O)NC32)C(CO)C(O)C1O (stereo not shown) [Compound 5]
Human O-GlcNAcase; Human O-GlcNAcase over human HEX B
  Selectivity (KI O-GlcNAcase/KI HEX): 5,400
Human O-GlcNAcase; Human O-GlcNAcase
  Ki: 145 ± 1.77 µM
[1]
  ganglioside GM2 accumulation: accumulated in Compound 5-treated BV2 cells in a dose-dependent manner
Human Hex B (FLAG-HexB)
  association of FLAG-HexB with compound (streptavidin-agarose beads): FLAG-HexB protein was attached to the streptavidin-agarose beads
